Experimental data: patent US20250361307A1, “COMBINATION THERAPIES FOR TREATING HYPERPROLIFERATIVE DISORDERS” (X4 Pharmaceuticals, Inc., priority 2022, published 2025)

Key:
[1] = Solubility of mavorixafor; format: physicochemical
[2] = test system: WM cell-BMSC coculture; test: IL-6 release in WM/BMSC coculture model (ELISA); format: cell-based; conditions: WM cell-BMSC coculture (FIG. 12)
Protocol: (§1) BMSCs were cultured in 96-, 48-, or 24-well plates until 90% confluence. […] Cells were coincubated for 48 or 72 hours followed by measurement of cell viability, apoptosis, IgM, and IL-6 release. The IgM levels were quantitated using a human IgM Enzyme-linked immunosorbent assay (ELISA) kit (Abcam, #ab214568) according to the manufacturer's instructions. IL-6 levels were quantitated using an IL-6 ELISA MAX™ kit (BioLegend, #430515) per manufacturer's recommendations. For all ELISA kits, plates were developed with 3,3′,5,5′-tetramethylbenzidine (TMB) development solution or a biotinylated antihuman IL-6 detection antibody/avidin horseradish peroxidase (HRP) solution. The reaction was stopped with the stop solution, and absorbance was read at 450 nm with a microplate reader (Synergy™ HT, BioTek Instruments).

[3] = test system: MWCL-1 cells; test: BMSC-induced IgM hypersecretion, MWCL-1/HS-27A coculture (ELISA); format: cell-based
Protocol: as §1

[4] = test system: cleavage of caspase-3 and PARP in MWCL-1 cells; test: Immunoblotting of apoptotic markers; format: cell-based; conditions: MWCL-1 monoculture (FIG. 4G)
Protocol: Whole cells were lysed by radioimmunoprecipitation assay (RIPA) lysis buffer (Sigma-Aldrich, #R0278) with protease inhibitor cocktail (Roche Custom Biotech, #11697498001). Lysates were separated by sodium dodecyl sulfate polyacrylamide gel-electrophoresis (SDS-PAGE) electrophoresis and transferred to Trans-Blot® Turbo™ Mini PVDF Transfer Packs (Bio-Rad). Membranes were incubated with primary antibodies: anti-poly adenosine diphosphate (ADP)-ribose polymerase (PARP) (1:1000, Cell Signaling, #9542); Anti-Caspase 3 (1:1000, Cell Signaling, #9662) and antitubulin (1:5000, R&D, #MAB9344). Secondary HRP-conjugated antibodies (Abcam) were used at 1:10.000 dilution. Membranes were developed with enhanced chemiluminescence reagent (Amersham™ ECL Prime Western Blotting Detection Reagent, GE Healthcare) on LAS4000 gel documentation system.

[5] = test system: MWCL-1 cells; test: Cell viability of MWCL-1 cells (CellTiter-Glo); format: cell-based; conditions: tested concentrations, 4 hours, data not shown
[6] = Terminal half-life of mavorixafor; conditions: in vivo
[7] = test system: CXCL12-induced Ca2+ mobilization in MWCL-1 cells; test: Calcium mobilization assay (Fluo-4 AM); format: cell-based; conditions: dose-dependent (FIG. 3D)
Protocol: MWCL-1 cells (2×10^5 cells/well) were seeded in transparent bottom, black 96-well plates coated with poly-L-lysine (BioCoat®, Corning) and serum-starved (medium with 1% FBS) for 24 hours. Medium was removed and cells were loaded with 100 μL of fluo-4 AM (3 μM, Invitrogen, #F14201) dye solution for 45 minutes at 37° C. Subsequently, 100 μL of assay buffer alone or assay buffer with compound dilutions was added, and the plates were equilibrated in the plate reader for an additional 20 minutes at 37° C. The CXCL12 was injected with simultaneous measurement of fluorescent signal (FlexStation® 3 Multi-Mode Microplate Reader, Molecular Devices). Raw traces were analyzed in SoftMax®Pro 7 Software (Molecular Devices). The arbitrary units were calculated as the difference between maximal and minimal signal after treatment injection, normalized to the baseline signal before injection.

[8] = test system: HS-27A and HS-5 BMSCs; test: Apoptosis of BMSCs cocultured with WM cells; format: cell-based; conditions: WM cell-BMSC coculture, mavorixafor alone (FIG. 11A-B)
Protocol: BMSCs were cultured in 96-, 48-, or 24-well plates until 90% confluence. […] Cells were coincubated for 48 or 72 hours followed by measurement of cell viability, apoptosis, IgM, and IL-6 release. Cells were washed with PBS, resuspended in Annexin V binding buffer (BioLegend, #422201), and stained with Alexa Fluor® 647 Annexin V (BioLegend, #640943), propidium iodide (BD Pharmingen, #51-66211E), and CD45 antibody (BioLegend, #368502) for 15 minutes at room temperature and analyzed by flow cytometry.

[9] = test system: MWCL-1 cells; test: Apoptosis of MWCL-1 cells in monoculture (Annexin V flow cytometry); format: cell-based
Protocol: BMSCs were cultured in 96-, 48-, or 24-well plates until 90% confluence. […] Cells were coincubated for 48 or 72 hours followed by measurement of cell viability, apoptosis, IgM, and IL-6 release.
(§2) Cells were washed with PBS, resuspended in Annexin V binding buffer (BioLegend, #422201), and stained with Alexa Fluor® 647 Annexin V (BioLegend, #640943), propidium iodide (BD Pharmingen, #51-66211E), and CD45 antibody (BioLegend, #368502) for 15 minutes at room temperature and analyzed by flow cytometry.

[10] = test system: MWCL-1 cells; test: Transwell migration assay; format: cell-based
Protocol: Cell migration toward CXCL12 gradient or BMSC monolayer was determined using the Transwell migration assay. MWCL-1 cells were stained with 500 nM Calcein AM (Invitrogen, #C1430) and preincubated with mavorixafor for 15 minutes before transfer (5×10^5 cells) to an upper well of a […] pore size Transwell® (Corning, #3421). […] Wells without CXCL12 were treated with 10 μM LIT-927 (Selleck Chemicals, #S8813), a neutraligand of CXCL12, to serve as background control. After 4 hours of incubation, cells that migrated to the lower chambers were collected and resuspended in Dulbecco's phosphate-buffered saline (DPBS) containing Precision Count Beads™ (BioLegend, #424902). Migrated cells and counting beads were counted by flow cytometry

[11] = patients with WHIM syndrome; cited from earlier work
[12] = test system: ALL cells; conditions: cited from earlier work
[13] = test system: MWCL-1 cells; test: Adhesion assay of MWCL-1 cells to BMSC monolayer; format: cell-based; conditions: pretreatment, 4 hours (FIG. 3A)
Protocol: MWCL-1 cells were labeled with 1 μM Calcein AM. After 10 minutes at 37° C., cells were washed, resuspended in medium containing 1% FBS, and treated with compounds for 30 minutes (2.25× 10^5 cells/mL). MWCL-1 cells were transferred to the BMSC monolayer. After 4 hours, nonadherent cells were removed by gently washing with phosphate-buffered saline (PBS). Remaining cells were harvested, resuspended in flow buffer (Hanks balanced salt solution+20 mM HEPES+0.5% […]) and analyzed by flow cytometry.

[14] = test system: MWCL-1 cells; test: Apoptosis of MWCL-1 cells in coculture with HS-27A BMSCs; format: cell-based; conditions: HS-27A BMSC coculture (FIG. 5A-F)
Protocol: BMSCs were cultured in 96-, 48-, or 24-well plates until 90% confluence. MWCL-1 cells (density≈2×10^5 cells/mL) were pretreated with indicated concentration of mavorixafor together with indicated concentrations of B-cell-targeted inhibitors in medium containing 4% FBS for 1 hour and transferred to the BMSC monolayer. Cells were coincubated for 48 or 72 hours followed by measurement of cell viability, apoptosis, IgM, and IL-6 release.
as §2

[15] = molecular target: T1, BTK (Homo sapiens, UniProt Q06187); conditions: patients with relapsed/refractory CLL and other B-cell disorders; cited from earlier work
T1 construct: endogenous in cells

[16] = molecular target: MCL-1 (Homo sapiens, UniProt Q07820); conditions: cited from earlier work
[17] = molecular target: T2, BCL-w (Homo sapiens, UniProt Q92843); conditions: cited from earlier work
T2 sequence (Q92843 1-193): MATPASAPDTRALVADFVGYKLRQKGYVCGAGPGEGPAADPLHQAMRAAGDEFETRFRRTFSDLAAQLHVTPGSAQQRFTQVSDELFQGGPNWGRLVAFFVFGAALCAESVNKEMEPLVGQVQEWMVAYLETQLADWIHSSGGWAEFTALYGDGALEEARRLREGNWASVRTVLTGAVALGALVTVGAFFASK

[18] = test system: small-cell lung cancer and hematologic cell lines; conditions: in vivo; cited from earlier work
[19] = molecular target: T3, A1 (Homo sapiens, UniProt Q16548); conditions: cited from earlier work
T3 sequence (Q16548 1-175): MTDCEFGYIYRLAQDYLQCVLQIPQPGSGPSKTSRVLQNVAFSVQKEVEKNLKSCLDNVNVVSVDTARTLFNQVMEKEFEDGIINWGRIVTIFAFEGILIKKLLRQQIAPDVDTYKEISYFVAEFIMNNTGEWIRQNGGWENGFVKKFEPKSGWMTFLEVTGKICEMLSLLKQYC

[20] = molecular target: BCL-2 (Homo sapiens, UniProt P10415); conditions: cited from earlier work
[21] = molecular target: BCL-XL (Homo sapiens, UniProt Q07817); conditions: cited from earlier work
[22] = test system: platelets; conditions: cited from earlier work

T1 sequence (Q06187 whole entry): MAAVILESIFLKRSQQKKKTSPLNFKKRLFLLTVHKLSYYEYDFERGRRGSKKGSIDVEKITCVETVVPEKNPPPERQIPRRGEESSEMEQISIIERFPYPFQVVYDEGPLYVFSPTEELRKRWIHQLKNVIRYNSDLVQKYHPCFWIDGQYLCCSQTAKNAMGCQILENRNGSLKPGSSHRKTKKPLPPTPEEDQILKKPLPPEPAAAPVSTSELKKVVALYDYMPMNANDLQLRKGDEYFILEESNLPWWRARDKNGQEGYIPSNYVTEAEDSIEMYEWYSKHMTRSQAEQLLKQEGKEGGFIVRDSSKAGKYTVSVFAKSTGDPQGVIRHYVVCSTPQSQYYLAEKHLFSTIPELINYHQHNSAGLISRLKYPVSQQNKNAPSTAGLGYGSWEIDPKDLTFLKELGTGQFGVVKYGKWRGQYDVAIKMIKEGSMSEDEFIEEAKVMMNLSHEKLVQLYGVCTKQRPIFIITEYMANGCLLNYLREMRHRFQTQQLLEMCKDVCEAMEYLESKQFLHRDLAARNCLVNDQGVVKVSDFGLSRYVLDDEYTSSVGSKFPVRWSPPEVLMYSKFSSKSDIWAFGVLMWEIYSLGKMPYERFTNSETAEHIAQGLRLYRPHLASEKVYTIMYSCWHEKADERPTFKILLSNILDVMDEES
MCL-1, sequence (Q07820 whole entry): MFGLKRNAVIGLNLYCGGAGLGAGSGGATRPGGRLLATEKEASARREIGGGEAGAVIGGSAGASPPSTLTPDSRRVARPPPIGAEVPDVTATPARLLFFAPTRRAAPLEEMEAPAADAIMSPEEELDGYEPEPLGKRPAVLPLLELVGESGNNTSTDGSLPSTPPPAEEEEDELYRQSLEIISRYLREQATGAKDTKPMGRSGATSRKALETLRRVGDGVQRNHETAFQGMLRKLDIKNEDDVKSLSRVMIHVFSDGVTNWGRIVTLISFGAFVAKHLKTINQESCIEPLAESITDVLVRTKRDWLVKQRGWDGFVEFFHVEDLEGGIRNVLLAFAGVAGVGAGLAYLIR
BCL-XL, sequence (Q07817 whole entry): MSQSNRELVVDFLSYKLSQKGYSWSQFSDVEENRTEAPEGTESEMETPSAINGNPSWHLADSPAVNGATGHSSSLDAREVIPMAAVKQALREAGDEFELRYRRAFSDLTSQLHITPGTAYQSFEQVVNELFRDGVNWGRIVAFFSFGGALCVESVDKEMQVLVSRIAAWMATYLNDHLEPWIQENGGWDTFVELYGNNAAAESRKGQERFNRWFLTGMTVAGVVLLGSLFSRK
BCL-2, sequence (P10415 whole entry): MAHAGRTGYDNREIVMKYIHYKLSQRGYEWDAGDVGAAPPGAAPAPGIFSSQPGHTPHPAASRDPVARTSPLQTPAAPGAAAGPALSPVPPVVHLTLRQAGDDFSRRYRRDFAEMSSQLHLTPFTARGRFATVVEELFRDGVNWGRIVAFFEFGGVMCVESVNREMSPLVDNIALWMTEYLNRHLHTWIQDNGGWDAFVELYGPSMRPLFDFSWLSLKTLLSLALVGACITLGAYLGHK

In the case of `NCCCCN(Cc1nc2ccccc2[nH]1)[C@H]1CCCc2cccnc21` [Mavorixafor], the solubility ([1]; aqueous buffer, pH range 3.0 to 8.0) is reported as > 100 mg/mL, the “Solubility in water” value ([1]; water) is reported as “only slightly soluble” and the IL-6 release [2] is reported as “no significant effect”. The “BM stroma-induced IgM hypersecretion, combination with ixazomib” value ([3]; BMSC: HS-27A cells, 72 hours (FIG. 16)) was “Synergizes”, the “BMSC-induced IgM hypersecretion” value ([3]; HS-27A coculture, 48 or 72 hours (FIG. 6A-G)) was “inhibited” and the “proteolytic cleavage of caspase-3 and PARP” value [4] was “minor effects”. For the same molecule, the “cytotoxicity in MWCL-1 cells” value [5] was “not sufficient to induce cytotoxicity”, the half-life [6] was 12 to 24 h and the “CXCL12-mediated Ca2+ mobilization” value [7] was “blocked”. The “apoptosis of BMSCs” value [8] was “much weaker effects”, the “apoptosis efficacy of ixazomib when mavorixafor is added” value ([9]; absence of bone marrow stroma, 72 hours (FIG. 15)) was “Enhances” and the “apoptosis of MWCL-1 cells, single agent” value ([9]; monoculture (FIG. 8A-F, FIG. 4A-F)) was “minor increase”. For the same molecule, the “migration toward BMSC-secreted CXCL12” value ([10]; HS-27A BMSCs in lower chamber (FIG. 3C)) was “significantly inhibited”, the “migration toward a CXCL12 gradient” value ([10]; pretreatment of MWCL-1 cells (FIG. 3B)) was “significantly inhibited” and the “tolerability, treatment-related serious adverse events” value [11] was “well tolerated, with no treatment-related serious adverse events”. For the same molecule, the “CXCL12-induced signaling pathway in ALL cells” value [12] was “effectively block”, the “preestablished adhesion of ALL cells to stroma” value [12] was “disrupt” and the “sensitivity of ALL cells to vincristine and nilotinib” value [12] was “increase sensitivity”. For the same molecule, the “stromal-induced migration of ALL cells” value [12] was “block”, the “adhesion of WM cells to BMSCs” value [13] was “dose-dependent decrease” and the “sensitivity of MWCL-1 cells to apoptosis by B-cell-targeted inhibitors in presence of BMSCs” value [14] was “restored the sensitivity”.
In the case of `NC(=O)c1ncc(N2CCCCC2)nc1Nc1ccc(C2CCN(C[C@H]3CCN(c4ccc5c(c4)C(=O)N(C4CCC(=O)NC4=O)C5=O)C3)CC2)cc1` (some centres unmarked) [NX-2127], the “degradation of BTK” value [15] is listed as “clinically meaningful degradation”.
In the case of `CC1(C)CCC(c2ccc(Cl)cc2)=C(CN2CCN(c3ccc(C(=O)NS(=O)(=O)c4ccc(N[C@H](CCN5CCOCC5)CSc5ccccc5)c(S(=O)(=O)C(F)(F)F)c4)cc3)CC2)C1` [navitoclax], the “activity against MCL-1” value [16] is given as “no activity”, the “interaction with BCL-w” value [17] is given as “high affinity” and the tumor responses [18] is given as “rapid and complete tumor responses”. The “activity against A1” value [19] was “no activity”, the “interaction with BCL-2” value [20] was “high affinity” and the “interaction with BCL-XL” value [21] was “high affinity”.
For `CC1(C)CCC(CN2CCN(c3ccc(C(=O)NS(=O)(=O)c4ccc(NCC5CCOCC5)c([N+](=O)[O-])c4)c(Oc4cnc5[nH]ccc5c4)c3)CC2)=C(c2ccc(Cl)cc2)C1` [venetoclax], the platelet numbers [22] is listed as “little effect”.
